Legend:
[1] = target: T1, SARS-CoV-2 PL^pro (PL^pro; PL^pro-His) (Severe acute respiratory syndrome coronavirus 2, UniProt P0DTD1); assay: FRET peptide cleavage assay; type: biochemical; details: Dabcyl-FTLRGG/APTKV-Edans substrate, 200 nM PLpro
T1 construct: gene rep

[2] = target: T2, SARS-CoV-2 PL^pro (pcDNA3.1 SARS2 PL^pro, FlipGFP assay) (Severe acute respiratory syndrome coronavirus 2, UniProt P0DTD1); assay: FlipGFP-PLpro reporter assay; type: cell-based; details: GFP/mCherry ratio, 48 h
T2 construct: gene rep

SARS-CoV-2 M^pro = target: T3, SARS-CoV-2 M^pro (Severe acute respiratory syndrome coronavirus 2, UniProt P0DTD1); assay: Mpro FRET peptide assay; type: biochemical; details: pH 6.5; Dabcyl-KTSAVLQ/SGFRKME(Edans) substrate
T3 construct: gene rep

| Compound | IC50 [1] [nM] | EC50 [2] [nM] | inhibition at up to 200 μM (SARS-CoV-2 M^pro) [µM] |
| --- | --- | --- | --- |
| C[C@H](c1cccc2ccccc12)N(C)Cc1cccc2[nH]ccc12 [Jun9-75-4] | 620 |  |  |
| CC(c1cc(F)ccc1F)N(C)Cc1cc(O)ccc1Cl (centres unmarked) [Jun9-29-5] | > 20000 |  |  |
| Jun9-75-5 | 560 | > 60000 |  |
| Cc1ccc(N)cc1CN(C)[C@H](C)c1cccc2ccccc12 [Jun9-53-2] | 890 |  |  |
| C[C@H](c1ccc(Cl)cc1)N(C)Cc1cc(O)ccc1Cl [Jun9-13-4] | > 20000 |  |  |
| CC(c1ccccc1Cl)N(C)Cc1cc(O)ccc1Cl (centres unmarked) [Jun9-13-7] | 7290 ± 1030 |  | > 200 |

From paper doi:10.1101/2021.03.15.435551, “Discovery of SARS-CoV-2 papain-like protease inhibitors through a combination of high-throughput screening and FlipGFP-based reporter assay” (bioRxiv, 2021)
